Assay results taken from the supplement of paper PMC10307832.

Compound: Cn1c(=O)n(-c2ccc(C(C)(C)C#N)cc2)c2c3cc(-c4cnc5ccccc5c4)ccc3ncc21 [Dactolisib] + C[C@@H](Oc1cc(-c2cnn(C3CCNCC3)c2)cnc1N)c1c(Cl)ccc(F)c1Cl [Crizotinib] (partner 1 µM)
Experiment: relative viability (nuclei count vs DMSO), 5 days (fraction); higher = more cells survive
Settings: first compound 0.2 µM
Procedure, shortened: (§1)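 After 5 days of treatment, lung cancer cells in 1536-well plates were fixed and stained in a single step (final 0.05% Triton X-100, 1% formaldehyde, 1 ug/ml Hoechst) and their nuclei counted on 4× images. Treatment had been applied by pin tool the day after seeding as one drug alone or as a fixed anchor-drug dose with five library-drug doses (not always all listed) in √10 steps. Relative viability is the nuclei count of treated wells divided by that of vehicle wells, and values are medians of duplicate plates.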

| Cell Line | relative viability |
| --- | --- |
| H3255 | 0.391 |
| COR-L23 | 0.165 |
| COR-L 105 | 0.283 |
| IA-LM | 0.0865 |
| LOU-NH91 | 0.515 |
| ChaGo-K-1 | 1.13 |
| NCI-H2170 | 0.331 |
| A549 | 0.0827 |
| NCI-H1299 | 0.649 |
| CAL-12T | 0.215 |
| NCI-H2228 | 0.175 |
| NCI-H1563 | 0.597 |
| NCI-H1944 | 0.392 |
| ABC-1 | 0.396 |
| NCI-H358 | 0.189 |

Compound: C1CCC(CC1)N(CCNCCC2=C3C(=C(C=C2)O)NC(=O)CO3)C(=O)CCNCCC4=CC(=C(C=C4)Cl)Cl [AZ505] + CC(C)C[C@H](NC(=O)[C@H](Cc1ccccc1)NC(=O)c1cnccn1)B(O)O [Bortezomib] (partner 0.002 µM)
Experiment: as above
Settings: first compound 0.08 µM
Procedure, shortened: as §1

| Cell Line | relative viability |
| --- | --- |
| NCI-H727 | 0.728 |
| NCI-H1650 | 0.234 |
| EBC-1 | 0.479 |
| NCI-H1703 | 0.351 |
| NCI-H1993 | 0.894 |
| SK-LU-1 | 0.703 |
| NCI-H838 | 0.805 |
| LCLC-103H | 0.894 |
| NCI-H520 | 0.588 |
| NCI-H2126 | 1.11 |
| EMC-BAC-2 | 0.988 |
| NCI-H2085 | 0.958 |
| Calu-6 | 0.969 |
| HCC-366 | 0.933 |
| NCI-H1666 | 0.799 |
| NCI-H596 | 0.963 |
| NCI-H2087 | 0.686 |
| H3255 | 0.558 |
| COR-L23 | 0.996 |
| COR-L 105 | 0.712 |
| IA-LM | 0.59 |
| LOU-NH91 | 0.46 |
| ChaGo-K-1 | 0.945 |
| NCI-H1299 | 1.01 |
| CAL-12T | 0.946 |
| NCI-H2228 | 0.907 |
| NCI-H1563 | 0.846 |
| ABC-1 | 0.31 |

Same assay, conditions: first compound 0.253 µM

| Cell Line | relative viability |
| --- | --- |
| NCI-H727 | 0.708 |
| NCI-H1650 | 0.189 |
| EBC-1 | 0.519 |
| NCI-H1703 | 0.383 |
| NCI-H1993 | 1.09 |
| SK-LU-1 | 0.561 |
| NCI-H838 | 0.609 |
| LCLC-103H | 1.05 |
| NCI-H520 | 0.504 |
| NCI-H2126 | 1.09 |
| EMC-BAC-2 | 1.03 |
| NCI-H2085 | 1.01 |
| Calu-6 | 1.07 |
| HCC-366 | 1.01 |
| NCI-H1666 | 0.708 |
| NCI-H596 | 0.847 |
| NCI-H2087 | 0.845 |
| H3255 | 0.812 |
| COR-L23 | 1.1 |
| COR-L 105 | 0.907 |
| IA-LM | 0.867 |
| LOU-NH91 | 0.508 |
| ChaGo-K-1 | 0.91 |
| NCI-H1299 | 1.05 |
| CAL-12T | 0.82 |
| NCI-H2228 | 1.15 |
| NCI-H1563 | 0.743 |
| ABC-1 | 0.281 |

Same assay, conditions: first compound 0.8 µM

| Cell Line | relative viability |
| --- | --- |
| NCI-H727 | 0.767 |
| NCI-H1650 | 0.205 |
| EBC-1 | 0.452 |
| NCI-H1703 | 0.366 |
| NCI-H1993 | 0.937 |
| SK-LU-1 | 0.778 |
| NCI-H838 | 0.761 |
| LCLC-103H | 1.01 |
| NCI-H520 | 0.496 |
| NCI-H2126 | 1.08 |
| EMC-BAC-2 | 0.972 |
| NCI-H2085 | 0.934 |
| Calu-6 | 0.906 |
| HCC-366 | 1.02 |
| NCI-H1666 | 0.658 |
| NCI-H596 | 0.756 |
| NCI-H2087 | 0.732 |
| H3255 | 0.817 |
| COR-L23 | 0.888 |
| COR-L 105 | 0.813 |
| IA-LM | 0.835 |
| LOU-NH91 | 0.536 |
| ChaGo-K-1 | 1.04 |
| NCI-H1299 | 0.926 |
| CAL-12T | 0.835 |
| NCI-H2228 | 0.856 |
| NCI-H1563 | 0.83 |
| ABC-1 | 0.303 |

Same assay, conditions: first compound 2.53 µM

| Cell Line | relative viability |
| --- | --- |
| NCI-H727 | 0.747 |
| NCI-H1650 | 0.248 |
| EBC-1 | 0.533 |
| NCI-H1703 | 0.358 |
| NCI-H1993 | 1.25 |
| SK-LU-1 | 0.923 |
| NCI-H838 | 0.564 |
| LCLC-103H | 1.02 |
| NCI-H520 | 0.706 |
| NCI-H2126 | 1.09 |
| EMC-BAC-2 | 1.01 |
| NCI-H2085 | 1.05 |
| Calu-6 | 0.915 |
| HCC-366 | 0.952 |
| NCI-H1666 | 0.778 |
| NCI-H596 | 1.19 |
| NCI-H2087 | 0.849 |
| H3255 | 0.804 |
| COR-L23 | 0.925 |
| COR-L 105 | 0.65 |
| IA-LM | 0.866 |
| LOU-NH91 | 0.527 |
| ChaGo-K-1 | 1 |
| NCI-H1299 | 0.998 |
| CAL-12T | 0.936 |
| NCI-H2228 | 0.864 |
| NCI-H1563 | 0.766 |
| ABC-1 | 0.313 |

Same assay, conditions: first compound 8 µM

| Cell Line | relative viability |
| --- | --- |
| NCI-H727 | 0.934 |
| NCI-H1650 | 0.188 |
| EBC-1 | 0.515 |
| NCI-H1703 | 0.458 |
| NCI-H1993 | 1.04 |
| SK-LU-1 | 0.761 |
| NCI-H838 | 0.884 |
| LCLC-103H | 1.06 |
| NCI-H520 | 0.762 |
| NCI-H2126 | 1.04 |
| EMC-BAC-2 | 1.1 |
| NCI-H2085 | 1.1 |
| Calu-6 | 1.12 |
| HCC-366 | 1.11 |
| NCI-H1666 | 0.705 |
| NCI-H596 | 1.03 |
| NCI-H2087 | 0.91 |
| H3255 | 0.758 |
| COR-L23 | 0.832 |
| COR-L 105 | 0.77 |
| IA-LM | 0.896 |
| LOU-NH91 | 0.453 |
| ChaGo-K-1 | 1.13 |
| NCI-H1299 | 1.01 |
| CAL-12T | 1.01 |
| NCI-H2228 | 0.828 |
| NCI-H1563 | 0.922 |
| ABC-1 | 0.256 |
